pEC50, pKi: −log10 of the molar value. “And” between values parts separate entries of the source, which are not always exact repeats. Equal values may be shown once. Read-outs that look alike come from different tables or passages of the source.
Columns and labels:
[1] = target: T1, human dopamine receptor subtype hD2long (Homo sapiens, UniProt P14416); experiment: Receptor binding assay, [3H]spiperone competition, CHO cell membranes; details: for pKi: means of 2-8 individual experiments each done as triplicate; for selectivity ratio hD2long: vs p5-HT1a
T1 construct: expressed in transfected cells; host or cells: CHO
T1 sequence (P14416 whole entry): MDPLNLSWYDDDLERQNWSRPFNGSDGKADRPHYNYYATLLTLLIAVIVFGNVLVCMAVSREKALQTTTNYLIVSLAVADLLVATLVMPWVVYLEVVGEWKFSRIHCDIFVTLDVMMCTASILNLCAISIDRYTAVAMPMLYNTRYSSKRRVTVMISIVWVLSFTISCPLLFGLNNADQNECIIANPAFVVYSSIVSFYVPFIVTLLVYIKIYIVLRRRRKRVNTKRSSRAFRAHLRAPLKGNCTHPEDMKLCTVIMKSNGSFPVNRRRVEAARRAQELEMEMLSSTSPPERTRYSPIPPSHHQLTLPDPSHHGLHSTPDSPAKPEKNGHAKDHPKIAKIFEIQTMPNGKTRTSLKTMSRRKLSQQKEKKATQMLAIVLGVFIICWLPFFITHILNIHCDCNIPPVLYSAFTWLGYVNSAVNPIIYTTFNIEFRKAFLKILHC
Description: (§1) Receptor binding data were determined when performing competition binding assays with membrane preparations of cloned cells (stably transfected Chinese Hamster Ovary cells (CHO)) expressing the human receptors and the following radioligands: [^3H]spiperone at the human dopamine receptor subtypes hD2long, hD2short, D3, and hD4.4.
(§2) Selectivity ratios were calculated by division of the Ki values of the various compounds at the respective receptors through the Ki values at the 5HT1a receptor.

[2] = target: T2, human dopamine receptor subtype hD2short (Homo sapiens, UniProt P14416); experiment: as above; details: for pKi: means of 2-8 individual experiments each done as triplicate; for selectivity ratio hD2short: vs p5-HT1a
T2 construct: expressed in transfected cells; host or cells: CHO
T2 sequence (P14416 1-414 isoform P14416-2): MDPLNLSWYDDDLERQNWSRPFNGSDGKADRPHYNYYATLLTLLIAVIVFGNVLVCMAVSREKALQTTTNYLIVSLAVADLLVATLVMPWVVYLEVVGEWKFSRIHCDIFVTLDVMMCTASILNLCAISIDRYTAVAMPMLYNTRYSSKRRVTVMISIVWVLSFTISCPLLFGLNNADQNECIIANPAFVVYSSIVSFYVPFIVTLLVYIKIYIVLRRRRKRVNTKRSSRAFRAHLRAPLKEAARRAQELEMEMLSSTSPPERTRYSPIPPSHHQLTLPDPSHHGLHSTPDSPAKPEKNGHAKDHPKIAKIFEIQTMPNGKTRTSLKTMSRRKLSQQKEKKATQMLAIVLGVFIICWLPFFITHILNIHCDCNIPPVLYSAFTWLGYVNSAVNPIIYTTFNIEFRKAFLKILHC
Description: as §1, §2

[3] = target: T3, human dopamine receptor subtype hD3 (Homo sapiens, UniProt P35462); experiment: as above; details: for pKi: means of 2-8 individual experiments each done as triplicate; for selectivity ratio hD3: vs p5-HT1a
T3 construct: expressed in transfected cells; host or cells: CHO
T3 sequence (P35462 whole entry): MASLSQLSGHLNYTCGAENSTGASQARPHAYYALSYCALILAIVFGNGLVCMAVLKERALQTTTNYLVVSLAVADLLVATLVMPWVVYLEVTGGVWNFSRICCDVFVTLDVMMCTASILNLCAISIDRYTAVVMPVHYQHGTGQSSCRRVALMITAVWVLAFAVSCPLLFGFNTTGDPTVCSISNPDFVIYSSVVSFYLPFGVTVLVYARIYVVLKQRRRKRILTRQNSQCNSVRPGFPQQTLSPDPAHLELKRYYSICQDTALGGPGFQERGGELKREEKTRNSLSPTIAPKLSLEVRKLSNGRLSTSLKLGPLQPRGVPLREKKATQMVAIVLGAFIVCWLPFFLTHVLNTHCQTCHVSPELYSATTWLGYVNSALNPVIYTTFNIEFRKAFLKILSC
Description: as §1, §2

[4] = target: T4, human dopamine receptor subtype hD4.4 (Homo sapiens, UniProt P21917); experiment: as above; details: for pKi: means of 2-8 individual experiments each done as triplicate; for selectivity ratio hD4.4: vs p5-HT1a
T4 construct: expressed in transfected cells; host or cells: CHO
T4 sequence (P21917 1-419): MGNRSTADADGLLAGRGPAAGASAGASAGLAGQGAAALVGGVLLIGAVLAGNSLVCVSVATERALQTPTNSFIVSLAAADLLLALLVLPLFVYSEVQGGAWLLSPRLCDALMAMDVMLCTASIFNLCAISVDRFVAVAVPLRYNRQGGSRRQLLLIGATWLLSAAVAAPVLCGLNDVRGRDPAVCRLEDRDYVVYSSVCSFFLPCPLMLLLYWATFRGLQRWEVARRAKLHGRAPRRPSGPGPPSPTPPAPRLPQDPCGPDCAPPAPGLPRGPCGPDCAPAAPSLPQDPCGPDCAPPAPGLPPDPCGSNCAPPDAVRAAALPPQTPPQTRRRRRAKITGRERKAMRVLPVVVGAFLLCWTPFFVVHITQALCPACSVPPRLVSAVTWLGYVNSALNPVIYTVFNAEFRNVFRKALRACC
Description: as §1, with “hD4.4. […].” for “hD4.4.”
as §2

[5] = target: T5, porcine cortical p5-HT2 serotonin receptor (Sus scrofa, UniProt P50129); experiment: Receptor binding assay, [3H]ketanserin competition, porcine cortical membranes; details: for pKi: means of 2-8 individual experiments each done as triplicate; for selectivity ratio p5-HT2: vs p5-HT1a
T5 construct: membrane homogenates prepared from porcine striatal or cortical tissue; from tissue; host or cells: porcine cortex
T5 sequence (P50129 whole entry): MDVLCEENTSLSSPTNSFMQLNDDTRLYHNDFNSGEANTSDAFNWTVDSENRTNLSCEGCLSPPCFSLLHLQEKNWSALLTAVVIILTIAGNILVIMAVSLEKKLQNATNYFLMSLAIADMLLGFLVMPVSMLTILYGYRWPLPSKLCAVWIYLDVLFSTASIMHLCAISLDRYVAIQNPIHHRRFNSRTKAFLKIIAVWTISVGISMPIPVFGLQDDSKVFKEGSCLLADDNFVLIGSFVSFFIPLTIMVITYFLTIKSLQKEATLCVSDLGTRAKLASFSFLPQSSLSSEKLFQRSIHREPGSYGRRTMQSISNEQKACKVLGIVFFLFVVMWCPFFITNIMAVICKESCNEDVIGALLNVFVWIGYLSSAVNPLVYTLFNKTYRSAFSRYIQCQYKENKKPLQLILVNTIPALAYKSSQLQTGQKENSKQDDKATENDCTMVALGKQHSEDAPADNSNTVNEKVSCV

[6] = target: T6, porcine cortical p5-HT1a serotonin receptor (Sus scrofa, UniProt A0A4X1UTF5); experiment: Receptor binding assay, [3H]WAY100635 competition, porcine cortical membranes; details: for pKi: means of 2-8 individual experiments each done as triplicate; for selectivity ratio p5-HT1a: reference receptor of the ratio (=1)
T6 construct: membrane homogenates prepared from porcine striatal or cortical tissue; from tissue; host or cells: porcine cortex
T6 sequence (A0A4X1UTF5 1-422): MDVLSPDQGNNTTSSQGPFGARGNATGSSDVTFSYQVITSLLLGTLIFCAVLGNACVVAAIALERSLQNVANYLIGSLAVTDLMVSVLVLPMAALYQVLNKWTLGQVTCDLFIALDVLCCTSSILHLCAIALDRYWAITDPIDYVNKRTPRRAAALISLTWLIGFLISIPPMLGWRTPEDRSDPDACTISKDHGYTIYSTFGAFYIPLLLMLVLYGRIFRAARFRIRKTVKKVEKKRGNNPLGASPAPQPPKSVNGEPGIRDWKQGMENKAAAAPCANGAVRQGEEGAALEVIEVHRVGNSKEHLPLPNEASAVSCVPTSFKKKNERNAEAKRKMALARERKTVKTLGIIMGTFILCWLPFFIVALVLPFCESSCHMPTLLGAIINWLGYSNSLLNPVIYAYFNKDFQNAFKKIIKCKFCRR

[7] = target: T7, human 5-HT1a receptor (Homo sapiens, UniProt P08908); experiment: [35S]GTPγS functional assay; assay type: biochemical; details: for Emax: read-out: intrinsic activity [% rel. to serotonin]
T7 construct: expressed in transfected cells
T7 sequence (P08908 1-422): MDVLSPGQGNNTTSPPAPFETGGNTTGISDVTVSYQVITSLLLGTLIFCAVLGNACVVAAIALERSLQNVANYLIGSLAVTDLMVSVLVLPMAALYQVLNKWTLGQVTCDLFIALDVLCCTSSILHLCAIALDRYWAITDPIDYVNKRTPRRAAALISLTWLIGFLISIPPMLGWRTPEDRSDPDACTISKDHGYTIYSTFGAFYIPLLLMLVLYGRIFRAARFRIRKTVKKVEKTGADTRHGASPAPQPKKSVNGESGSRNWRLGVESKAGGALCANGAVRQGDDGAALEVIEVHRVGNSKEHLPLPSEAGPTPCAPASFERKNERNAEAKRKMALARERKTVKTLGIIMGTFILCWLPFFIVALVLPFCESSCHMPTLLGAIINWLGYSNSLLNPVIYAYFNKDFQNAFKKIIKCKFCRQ
Description: Specific binding of [^35S]GTPγS is stimulated by activation of the stably expressed human 5-HT1a receptor in a dose-dependent way by agonists for this GPCR and is determined by measuring the radioactive label of the membrane. Non-linear regression analysis of the resulting dose-response curves yields the EC50 value in [nM] representing the half maximal concentration which is necessary to activate the receptor completely.

[8] = target: T8, porcine striatal pD1 dopamine receptor (Sus scrofa, UniProt P50130); experiment: Receptor binding assay, [3H]SCH 23390 competition, porcine striatal membranes; details: for pKi: means of 2-8 individual experiments each done as triplicate; for selectivity ratio pD1: vs p5-HT1a
T8 construct: membrane homogenates prepared from porcine striatal or cortical tissue; from tissue; host or cells: porcine striatum
T8 sequence (P50130 whole entry): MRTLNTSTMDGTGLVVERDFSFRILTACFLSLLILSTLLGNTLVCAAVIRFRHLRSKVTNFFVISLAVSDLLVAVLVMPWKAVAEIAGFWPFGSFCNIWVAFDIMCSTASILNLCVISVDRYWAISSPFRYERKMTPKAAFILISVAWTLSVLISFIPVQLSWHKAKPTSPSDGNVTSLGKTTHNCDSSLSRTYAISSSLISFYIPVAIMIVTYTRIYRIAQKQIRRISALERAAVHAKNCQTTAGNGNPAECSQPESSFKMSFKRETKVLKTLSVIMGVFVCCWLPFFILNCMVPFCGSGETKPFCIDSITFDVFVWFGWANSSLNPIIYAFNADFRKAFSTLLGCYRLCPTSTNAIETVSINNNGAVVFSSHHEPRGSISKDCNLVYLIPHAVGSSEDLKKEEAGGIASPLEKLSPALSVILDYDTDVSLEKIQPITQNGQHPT

[9] = target: T9, porcine cortical pα1 adrenergic receptor; experiment: Receptor binding assay, [3H]prazosin competition, porcine cortical membranes; details: means of 2-8 individual experiments each done as triplicate
T9 construct: Ki pα1; other: means of 2-8 individual experiments each done as triplicate

[10] = system: porcine cortical pα1 adrenergic receptor; experiment: as above; details: vs p5-HT1a
[11] = target: porcine cortical pα2 adrenergic receptor; experiment: Receptor binding assay, [3H]RX821002 competition, porcine cortical membranes; details: means of 2-8 individual experiments each done as triplicate
[12] = mean values of 2-8 individual experiments

| Molecule | pKi [1] | selectivity ratio hD2long [1] | pKi [2] | selectivity ratio hD2short [2] | pKi [3] | selectivity ratio hD3 [3] | pKi [4] | selectivity ratio hD4.4 [4] | pKi [5] | selectivity ratio p5-HT2 [5] | pKi [6] | selectivity ratio p5-HT1a [6] | pKi [8] | selectivity ratio pD1 [8] | pKi [9] | selectivity ratio pα1 [10] | pKi [11] | pEC50 [7, 12] | Emax [7] [%] | also measured |
| --- | --- | --- | --- | --- | --- | --- | --- | --- | --- | --- | --- | --- | --- | --- | --- | --- | --- | --- | --- | --- |
| N-(2-Adamantylethyl)-N-(8-hydroxytetralin-2-yl)-N-propylamine [Compound 9] | 7.80 | 4.6 | 7.92 | 3.4 | 7.41 | 11 | 6.46 | 100 | 5.80 | 1600 | 8.46 | 1 | 5.59 | 740 | 6.24 | 160 |  |  |  | pEC50 [7]: 8.72; intrinsic activity [% rel. to serotonin] ([7]; [35S]GTPγS incorporation relative to serotonin (=100%)): 88% |
| CCCN(CCc1cccs1)[C@@H]1CCc2cccc(OC)c2C1 [Compound 2a, (R)—N-(8-Methoxytetralin-2-yl)-N-propyl-N-[2-(2-thienyl)ethyl]amine] | 6.12 |  | 6.08 |  | 6.64 |  | 6.06 |  | 5.22 |  | 8.14 |  | 5.28 |  | 6.85 |  | 7.19 | 8.96 | 82 |  |
| CCCN(CCc1cc(C)ccc1C)C1CCc2cccc(O)c2C1 (stereo not drawn) [Compound 7, N-[2-(2,5-Dimethylphenyl)ethyl]-N-(8-hydroxytetralin-2-yl)-N-propylamine] | 6.85 | 82 | 7.05 | 53 | 6.89 | 76 | 6.31 | 290 | 5.77 | 1 000 | 8.77 | 1 | 5.62 | 1 400 | 7.11 | 46 |  |  |  | melting point: 102 °C |
| CCCN(CCc1cccs1)[C@@H]1CCc2cccc(O)c2C1 [Compound 1a, (R)—N-(8-Hydroxytetralin-2-yl)-N-propyl-N-[2-(2-thienyl)ethyl]amine] | 6.62 | 460 | 6.59 | 500 | 7.00 | 190 | 7.00 | 190 | 5.60 | 4 800 | 9.28 | 1 | 5.06 | 17 000 | 6.19 | 1 200 | 7.25 | 8.72 to 9.19 and 9.19 | 103 | agonist activity at the human 5-HT1a receptor ([7]; in words): full agonist activity |
| CCCN(CCc1ccccc1)C1CCc2cccc(OC)c2C1 (stereo not drawn) [Compound 4, N-(8-Methoxytetralin-2-yl)-N-(2-phenylethyl)-N-propylamine] | 6.48 |  | 6.64 |  | 7.29 |  | 6.28 |  | 5.38 |  | 8.60 |  | 5.14 |  | 6.72 |  | 7.22 |  |  |  |
